{
  "source": "patent US20090221024A1",
  "about": "“T CELL ASSAYS” (ANTITOPE LIMITED, priority 2006, published 2009)",
  "molecules": {"B1": {"name": "Betaferon: Betaferon (Schering AG), human interferon beta, an immunomodulatory protein (protein, UniProt P01574 22-187, looked up, variant C17S)", "Interferon beta": "MSYNLLGFLQRSSNFQSQKLLWQLNGRLEYCLKDRMNFDIPEEIKQLQQFQKEDAALTIYEMLQNIFAIFRQDSSSTGWNETIVENLLANVYHQINHLKTVLEEKLEKEDFTRGKLMSSLHLKRYYGRILHYLKAKEYSHCAWTIVRVEILRNFYFINRLTGYLRN", "modifications": "no N-terminal Met", "notes": "Betaferon (Schering AG), human interferon beta, an immunomodulatory protein"}, "B2": {"name": "mutant T cell epitope depleted protein: T cell epitope depleted human sTNFR1 Fc fusion protein with mutations I10Q, T20R, H23P, L56A, L108T, L110H and L149D (protein, UniProt P19438 30-211, looked up, variant I10Q T20R H23P L56A L108T L110H L149D)", "extracellular domain": "LVPHLGDREKRDSVCPQGKYQHPQNNSICCRKCPKGTYLYNDCPGPGQDTDCRECESGSFTASENHARHCLSCSKCRKEMGQVEISSCTVDRDTVCGCRKNQYRHYWSENLFQCFNCSTCHNGTVHLSCQEKQNTVCTCHAGFFLRENECVSCSNCKKSDECTKLCLPQIENVKGTEDSGTT", "modifications": "extracellular domain human Fc fusion"}},
  "key": {"[1]": {"test_system": "CD8^+ CD25^hi depleted PBMC", "assay": "T cell proliferation assay (3HTdR) with whole CD8+ depleted vs CD8+ CD25hi depleted PBMC", "assay_type": "cell-based, human", "conditions": "peptides previously scored borderline or negative; SI≧2 threshold"}, "[2]": {"test_system": "CD8^+ CD25^hi T cell depleted PBMC", "assay": "Timecourse T cell proliferation assay, bulk cultures of CD8+ CD25hi T cell depleted PBMC", "assay_type": "cell-based, human", "experimental": "Wild type (WT) and T cell epitope depleted peptides ([…] and […], respectively) derived from human sTNFR1 sequence were synthesized (Pepscan Systems, Leystad, Netherlands) and tested using the method of example 1 in which CD8^+ CD25^hi T cell depleted PBMC were used to compare peptides derived from sTNFR-1 for the capacity to stimulate T cell responses from twenty healthy donors. Bulk cultures were established by adding 1 ml of 2-4×10^6/ml CD8^+ CD25^hi T cell depleted PBMC in AIM V culture medium to each well of a 24 well plate (Greiner Bio-One, Frickenhausen, Germany). Each peptide was tested separately against each donor by adding 1 ml 10 μM peptide to each bulk culture (final concentration of 5 μM for a 2 ml per bulk culture). For comparison, additional bulk cultures were established for untreated and positive (KLH) controls. Replicate samples (of T blasts) were removed from bulk cultures on days 6-9 and proliferation was assessed in 96 round bottom plates The data were used to assess the magnitude and kinetics of T cell responses to each peptide on days 6, 7, 8 and 9 post stimulation. In addition, the same twenty healthy donors used in the time course proliferation assay were tested for IL-2 production after 8 days culture with the TNFR1 peptides using the IL-2 Elispot assay. Elispot plates were pre-wet with 70% ethanol then coated with IL-2 capture antibody (R&D systems, Minneapolis, USA) overnight at 4° C. The plates were washed twice with PBS (Invitrogen, Paisley, UK) then blocked in 1% BSA/PBS for 2 hours at room temperature. The plates were washed in PBS prior to the addition of CD8^+ CD25^hi T cell depleted PBMC at 4×10^5 cells per well and test samples at a final concentration of 5 μM. After 7 days at 37° C./5% CO2, the plates were developed. After washing with first water then PBS, IL-2 detection antibody (R&D systems, Minneapolis, USA) in PBS/1% BSA was added for 2 hours at 37° C. After further washing with PBS, streptavadin-AP (R&D systems, Minneapolis, USA) was added for 1.5 hours, the plates washed again then BCIP/NBT chromagen (R&D systems, Minneapolis, USA) added for 30 minutes. The plates were washed with water, dried then spot counts analysed using the Immunospot Elispot analyzer, software version 3 (Cleveland, Ohio, USA).\nWild type (WT) and mutant T cell epitope depleted human sTNFR1 proteins were prepared as human Fc fusion proteins as described in WO/2004/113387 with the epitope-depleted protein having mutations I10Q, T20R, H23P, L56A, L108T, L110H and L149D. Proliferation and IL-2 Elispot assays were performed as in example 2 except that 1 ml of sTNFR1 proteins were added to a final concentration of 10 μg/ml.\nCarbamazepine (Novartis Pharmaceuticals UK) and an N-acetyl iminostilbene (an analogue of carbamazepine, synthesized according to Ying et al Journal of Allergy and Clinical Immunology 2006; 118:233-241) were compared for the ability to stimulate T cell responses in a panel of healthy donors. Both compounds were tested at 25 μg/ml in separate bulk cultures for each donor according to the method of example 2. Briefly, bulk cultures were established using 2-4×10^6 CD8^+ CD25^hi T cell depleted PBMC in each well of a 24 well plate. Replicate samples (of T blasts) are removed from bulk cultures on days 5-8 and proliferation was assessed in 96 well plates. The data were used to assess the magnitude and kinetics of T cell responses to each compound.\nAs for example 2, a SI≧2 was used as a threshold for positive responses and data was further analyzed to determine the coefficient of variance (CV), standard deviation (SD) and significance (p<0.05) using parametric and non-parametric statistical analysis. Any given compound was considered to be immunogenic only if the response is statistically significant (p<0.05) with an SI≧2."}, "patients": {"test_system": "patients", "conditions": "known; cited from earlier work"}, "[3]": {"test_system": "CD8^+ CD25^hi T cell depleted PBMC", "assay": "IL-2 Elispot assay with CD8+ CD25hi T cell depleted PBMC", "assay_type": "cell-based, human", "conditions": "5 μM peptide, twenty healthy donors, SI threshold of 2, p<0.05; donors 3, 8 and 11", "experimental": "Wild type (WT) and T cell epitope depleted peptides ([…] and […], respectively) derived from human sTNFR1 sequence were synthesized (Pepscan Systems, Leystad, Netherlands) and tested using the method of example 1 in which CD8^+ CD25^hi T cell depleted PBMC were used to compare peptides derived from sTNFR-1 for the capacity to stimulate T cell responses from twenty healthy donors. Bulk cultures were established by adding 1 ml of 2-4×10^6/ml CD8^+ CD25^hi T cell depleted PBMC in AIM V culture medium to each well of a 24 well plate (Greiner Bio-One, Frickenhausen, Germany). Each peptide was tested separately against each donor by adding 1 ml 10 μM peptide to each bulk culture (final concentration of 5 μM for a 2 ml per bulk culture). For comparison, additional bulk cultures were established for untreated and positive (KLH) controls. Replicate samples (of T blasts) were removed from bulk cultures on days 6-9 and proliferation was assessed in 96 round bottom plates The data were used to assess the magnitude and kinetics of T cell responses to each peptide on days 6, 7, 8 and 9 post stimulation. […] The plates were washed with water, dried then spot counts analysed using the Immunospot Elispot analyzer, software version 3 (Cleveland, Ohio, USA). […]"}, "[4]": {"test_system": "autologous CD8^+ CD25^hi depleted CD4^+ T cells", "assay": "IL-2 Elispot assay, antigen-pulsed monocyte derived dendritic cells plus autologous CD8+ CD25hi depleted CD4+ T cells", "assay_type": "cell-based, human", "conditions": "44 μg/ml, DC pulsed 6 hours, 6 days, SI ≧2, p<0.05, FIG. 4", "experimental": "(§1) Monocytes were isolated from PBMC by adherence to tissue culture plastic (>90% CD14^+) and were cultured in 24 well plates in AIM V medium with 5% heat inactivated human AB serum (Autogen Bioclear, Caine, Wiltshire, UK) (growth medium) at an approximate density of 1×10^6 per well (24 well plate). Monocytes were incubated in growth medium containing human IL-4 (Peprotech, Rocky Hill, N.J., USA) and GM-CSF (Peprotech, Rocky Hill, N.J., USA) for 3 days. On day 3, 44 μg/ml of Betaferon (Schering AG, Berlin, Germany) were added in 0.5 ml test buffer plus 3% heat inactivated human AB serum and 25 mM (final concentration) HEPES pH 8. Control wells containing 50 μg/ml KLH or no antigen (untreated cells) were incubated in 1 ml PBS+0.01% Tween 20 plus 3% heat inactivated human AB serum (standard buffer). DC were incubated with antigen for 6 hours after which DCs were washed 6 times to remove exogenous IFN beta. […]\n(§2) On day 4, autologous CD8^+ CD25^hi depleted CD4^+ T cells were isolated by negative selection from PBMC (Dynal Human CD4^+ Negative Isolation Kit, Wirral, UK) and were then added to DCs at 1×10^5 per well in both proliferation and Elispot plates. Elispot plates were incubated for 6 days before developing (as in example 2) and proliferation plates were incubated for 7 days before proliferation was measured by incorporation of 3HTdR (a 6 hour pulse at 1 μCi/well). […]"}, "[5]": {"test_system": "autologous CD8^+ CD25^hi depleted CD4^+ T cells", "assay": "Proliferation assay, antigen-pulsed monocyte derived dendritic cells plus autologous CD8+ CD25hi depleted CD4+ T cells", "assay_type": "cell-based, human", "conditions": "44 μg/ml, DC pulsed 6 hours, 7 days, SI ≧2, p<0.05, FIG. 4", "experimental": "as §1, §2"}, "[6]": {"conditions": "5 μM peptide, donors 3, 8 and 11"}},
  "data": [
    {"molecule": "PGQTATITCSGHALG [peptide 1]", "values": [
      {"measurement": "detection of T cell epitopes after CD25^hi T cell depletion", "setting": "[1]", "value": "allowed detection of T cell epitopes"}
    ]},
    {"molecule": "CC(=O)N1c2ccccc2C=Cc2ccccc21", "note": "[N-acetyl iminostilbene]", "values": [
      {"measurement": "donors stimulated, compared", "setting": "[2]; 25 μg/ml, days 5-8, panel of healthy donors, SI≧2, p<0.05", "value": "fewer donors than carbamazepine"}
    ]},
    {"molecule": "NC(=O)N1c2ccccc2C=Cc2ccccc21", "note": "[carbamazepine, Carbamazepine]", "values": [
      {"measurement": "additional responses detected on days 6 and 7", "setting": "[2]; 25 μg/ml", "value": "one"},
      {"measurement": "day on which the majority of T cell responses are induced", "setting": "[2]; 25 μg/ml, days 5-8", "value": 5, "unit": "days"},
      {"measurement": "delayed allergic responses in patients", "setting": "patients", "value": "potent inducer of delayed allergic responses"}
    ]},
    {"molecule": "GDKFVSWYQQGSGQS [compound 2]", "values": [
      {"measurement": "detection of T cell epitopes after CD25^hi T cell depletion", "setting": "[1]", "value": "allowed detection of T cell epitopes"}
    ]},
    {"molecule": "HLRHCLSCSKCRKEM [WT peptide]", "values": [
      {"measurement": "donors giving responses, IL-2 Elispot assay", "setting": "[3]", "value": "three"},
      {"measurement": "peak proliferation responses, time", "setting": "[2]; [6]", "value": "7 days after peptide addition"},
      {"measurement": "score as a T cell epitope if proliferation measured at timepoints 8 or 9 days after peptide addition", "setting": "[2]; [6]", "value": "negative"},
      {"measurement": "donors giving responses, proliferation assay", "setting": "[2]; 5 μM peptide, twenty healthy donors, days 6-9, SI threshold of 2, p<0.05, donors 3, 8 and 11", "value": "three"}
    ]},
    {"molecule": "B1", "values": [
      {"measurement": "donors with significant T cell responses, IL-2 Elispot assay", "setting": "[4]", "value": "4 out of 29"},
      {"measurement": "donors with significant T cell responses, proliferation assay", "setting": "[5]", "value": "4 out of 29"}
    ]},
    {"molecule": "B2", "values": [
      {"measurement": "donors with significant T cell responses, proliferation assay", "setting": "[2]; whole protein 10 μg/ml, timecourse, FIG. 3", "value": "not"}
    ]}
  ]
}
